Results published in US20110275673A1, “INHIBITORS OF SPHINGOSINE KINASE 1” (priority 2008, published 2011).

Molecular target: T1, SPHK-1 (Homo sapiens, UniProt Q9NYA1)
T1 construct: purchased BPS Bioscience
Assay: Reporter Assay: sphingosine kinase conversion of fluorescein-labeled sphingosine, read on Lab Chip 3000
Format: biochemical
Conditions: 2 μM Fl-sphingosine, 25 μM ATP, 300 ng/ml SK1, 1 hour at room temperature; from percent conversion of substrate to product; read-out: SPHK-1 IC50 (n =)
Description: Sphingosine kinase is a 49 kDa enzyme that catalyzes the formation of sphingosine-1-phosphate (S-1-P) from sphingosine.
Fluorescein labeled sphingosine was obtained from Echelon Biosciences (S-100F). Buffer reagents (1 M Hepes, 10 triton x-100, 100% glycerol, dithiothreitol 1 M MgCl2, ATP, 500 mM EDTA and DMSO) were purchased from Sigma. Coating reagent (CR-3), was obtained from Caliper Life Sciences.
0.05% Triton X-100, 2.5% glycerol, 0.1% CR-3, and 0,6% DMSO. Termination butler included 100 mM Hepes (pH 7.5), 40 mM EDTA, 0.05% Triton X-100, 2.5% glycerol, 0.3% CR-3, and 0.6% DMSO.
All assay components were made in reaction buffer. […] The assaylvas allowed to incubate at room temperature sealed and protected from light for 1 hour.
After 1 hour, 10 μl of termination buffer was added to terminate, the reaction, and the plate was read on a Lab Chip 3000. The plate was read for one cycle. The Lab Chip separated substrate and product based on charge.
Results were calculated based on percent conversion of substrate to product using the following formula: […]
Percent inhibition and IC50's for compounds of the invention were determined using the percent conversion values obtained horn the Lab Chip.

T1 sequence (Q9NYA1 whole entry): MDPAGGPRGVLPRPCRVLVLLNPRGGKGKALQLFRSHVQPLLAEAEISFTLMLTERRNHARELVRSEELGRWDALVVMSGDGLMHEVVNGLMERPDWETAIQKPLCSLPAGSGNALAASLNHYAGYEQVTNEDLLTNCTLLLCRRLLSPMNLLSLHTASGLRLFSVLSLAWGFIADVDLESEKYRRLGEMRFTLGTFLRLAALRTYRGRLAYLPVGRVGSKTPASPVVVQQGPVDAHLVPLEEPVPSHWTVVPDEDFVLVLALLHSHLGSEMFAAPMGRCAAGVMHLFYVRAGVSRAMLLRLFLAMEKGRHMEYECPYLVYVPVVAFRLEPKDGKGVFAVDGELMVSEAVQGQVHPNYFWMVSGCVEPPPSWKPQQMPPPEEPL

SMILES | IC50 [nM]
O=C(NCc1ccc2oc(CC3CCCCC3)cc2c1)[C@H]1NCC[C@@H]1O [Example 116, (2S,3S)—N-((2-(Cyclohexylmethyl)benzofuran-5-yl)methyl)-3-hydroxypyrrolidine-2-carboxamide] | 110
O=C(NCc1ccc2oc(CCC3CCCCC3)cc2c1)[C@H]1NCC[C@@H]1O [Example 117, (2S,3S)—N-((2-(2-Cyclohexylethyl)benzofuran-5-yl)-methyl)-3-hydroxypyrrolidine-2-carboxamide] | 430
CCCCCCCCc1cc2cc(CNC(=O)[C@H]3NCC[C@@H]3O)cc(F)c2o1 [Example 118, (2S,3S)—N-((7-Fluoro-2-octylbenzofuran-5-yl)methyl)-3-hydroxypyrrolidine-2-carboxamide] | 460
CCCCCCCCc1cc2cc(CNC(=O)[C@H]3NCC[C@@H]3O)c(F)cc2o1 [Example 119, (2S,3S)—N-((6-Fluoro-2-octylbenzofuran-5-yl)methyl)-3-hydroxypyrrolidine-2-carboxamide] | 700
O=C(NCc1cc(F)c2oc(CC3CCCC3)cc2c1)[C@H]1NCC[C@@H]1O [Example 120, (2S,3S)—N-((2-(Cyclopentylmethyl)-7-fluorobenzofuran-5-yl)methyl)-3-hydroxypyrrolidine-2-carboxamide] | 2300
CCCCCCCCc1cc2c(F)c(CNC(=O)[C@H]3NCC[C@@H]3O)ccc2o1 [Example 121, (2S,3S)—N-((4-Fluoro-2-octylbenzofuran-5-yl)methyl)-3-hydroxypyrrolidine-2-carboxamide] | 510
O=C(NCc1cc(F)c2oc(C3CCCCC3)cc2c1)[C@H]1NCC[C@@H]1O [Example 122, (2S,3S)—N-((2-Cyclohexyl-7-fluorobenzofuran-5-yl)methyl)-3-hydroxypyrrolidine-2-carboxamide] | 790
CCCCCCCCCCc1ccc(NC(=O)[C@H]2C[C@H](O)CCN2)cc1 [Example 123, (2R,4R)—N-(4-decylphenyl)-4-hydroxypiperidine-2-carboxamide] | 9700
CCCCCCCCCCc1ccc(NC(=O)[C@@H]2C[C@@H](O)CCN2)cc1 [Example 124, (2S,4S)—N-(4-decylphenyl)-4-hydroxypiperidine-2-carboxamide] | 2700
